Experimental data as given in patent publication US8815951B2, “Inhibitors of epoxide hydrolases for the treatment of inflammation” (The Regents of the University of California, priority 1996, dated 2014).
“And” between values parts separate entries of the source, which are not always exact repeats. Identical values can stand only once. “Also recorded” adds a separate entry of the source. Like-named read-outs stand apart in the source and are kept apart here.

Experiments:
Human sEH (HsEH) = Human sEH (HsEH) (Homo sapiens (Human), UniProt P34913); assay: Spectrophotometric sEH inhibition assay (NEP2C substrate), recombinant human sEH; format: biochemical
Description: (§1) Recombinant mouse sEH (MsEH) and human sEH (HsEH) were produced in a baculovirus expression system as previously reported. […] The expressed proteins were purified from cell lysate by affinity chromatography. […] Protein concentration was quantified using the Pierce BCA assay using bovine serum albumin as the calibrating standard.
(§2) The mixture was incubated at 30° C. for 5 minutes. […] Assays were performed in quadruplicate.

[1] = target: recombinant mouse sEH (MsEH) (Mus musculus (Mouse), UniProt P34914); assay: Spectrophotometric sEH inhibition assay (NEP2C substrate), recombinant mouse sEH; format: biochemical
Description: as §1, §2

[2] = test system: SHR (spontaneously hypertensive rat); assay: Systolic blood pressure by tail cuff in SHR; format: in vivo; conditions: for effect on blood pressure in the SHR: dose equimolar to 3 mg/kg DCU; for decrease in systolic blood pressure 6 hr after the dose / time by which blood pressure returned to baseline after the dose: single dose 3 mg/kg DCU or equimolar
Excerpt: Animals. Male SHR and WKY rats 3-13 wks of age were purchased from Charles River Laboratories (Wilmington, Mass.) and housed in a controlled environment with 12 hr light/dark cycles and fed standard laboratory chow for □ 3 days before euthanasia. All animal use was approved by the University of California San Francisco Committee on Animal Research and followed the National Institutes of Health guidelines for the care and use of laboratory animals. For isolation of kidney subcellular fractions, rats were anesthetized with methoxyflurane, the abdominal cavities were opened, and the kidneys were perfused with ice-cold saline. Perfused kidneys were rapidly removed, the cortex and medulla dissected out and immersed in liquid nitrogen. All tissue was stored at −80° C. until preparation of microsomes. In some cases WKY and SHR rats were housed in metabolic cages for up to three days and urine was collected over triphenylphosphine in 24 hr intervals. The urine volume was noted and aliquots were stored at −80° C. prior to extraction and quantitation of DHETs and EETs. […] Systolic blood pressure was measured at room temperature by a photoelectric tail cuff system (Model 179, IITC, Inc., Woodland Hills, Calif.) for up to four days following the dose of inhibitor. Blood pressures are reported as the average of three separate readings over a 30 min period. […] Similar inhibition studies were carried out with equimolar doses of N-cyclohexyl-N′-dodecylurea, N-cyclohexyl-N′-ethylurea and dodecylaamine.

[3] = test system: insect cell culture expressing rat mEH; assay: Toxicity of epoxide-containing xenobiotics in insect cell culture expressing rat mEH; format: cell-based
Excerpt: The micosomal enzyme play a significant role in the metabolism of xenobiotics such as polyaromatic toxicants. Additionally, polymorphism studies have underlined a potential role of this enzyme in relation to several diseases, such as emphysema, spontaneous abortion and several forms of cancer. Inhibition of recombinant rat and human mEH can be obtained using primary ureas, amides, and amines. […].

CYP ω-hydroxylase = assay: Renal microsomal arachidonic acid metabolism, ω-hydroxylase activity; format: biochemical, rat; conditions: concentrations up to 25 μM
Swiss Webster mice = assay: Leukotoxin/isoleukotoxin-induced death in mice; format: in vivo, mouse; conditions: pretreatment 400 mg/kg i.p. in corn oil, 30 minutes before leukotoxin/isoleukotoxin methyl esters 700 mg/kg i.v.
Description: Male Swiss Webster mice (25-28 g) were purchased from Simonsen, Gilroy, Calif. The animals had free access to water and food. […] After 30 minutes of the pretreatment, the mice were treated intravenously through the tail vein with a 1:1 mixture of leukotoxin/isoleukotoxin methyl esters in ethanol (700 mg/kg, 1.0 ml/kg).

CYP epoxygenase = assay: Renal microsomal arachidonic acid metabolism, CYP epoxygenase activity; format: biochemical, rat; conditions: concentrations up to 25 μM
Description: Renal microsomal arachidonic acid metabolism. Microsomes, cytosol, and S9 fractions were prepared from the renal cortex or outer medulla samples from a single animal as described previously (Kroetz, D. L. et al. Mol Pharmacol 52, 362-372 (1997), Su, P. et al. Am J Physiol 275, […]-438 (1998)). Reaction conditions for the in vitro determination of arachidonic acid epoxygenase activity, metabolite extraction and HPLC analysis were described in detail elsewhere (Su, P. et al. Am J Physiol 275, […]-438 (1998)).

WKY rats = assay: Systolic blood pressure by tail cuff in WKY rats; format: in vivo, rat; conditions: single 3 mg/kg dose
Excerpt: Animals. Male SHR and WKY rats 3-13 wks of age were purchased from Charles River Laboratories (Wilmington, Mass.) and housed in a controlled environment with 12 hr light/dark cycles and fed standard laboratory chow for □ 3 days before euthanasia. All animal use was approved by the University of California San Francisco Committee on Animal Research and followed the National Institutes of Health guidelines for the care and use of laboratory animals. For isolation of kidney subcellular fractions, rats were anesthetized with methoxyflurane, the abdominal cavities were opened, and the kidneys were perfused with ice-cold saline. Perfused kidneys were rapidly removed, the cortex and medulla dissected out and immersed in liquid nitrogen. All tissue was stored at −80° C. until preparation of microsomes. In some cases WKY and SHR rats were housed in metabolic cages for up to three days and urine was collected over triphenylphosphine in 24 hr intervals. The urine volume was noted and aliquots were stored at −80° C. prior to extraction and quantitation of DHETs and EETs. […] Systolic blood pressure was measured at room temperature by a photoelectric tail cuff system (Model 179, IITC, Inc., Woodland Hills, Calif.) for up to four days following the dose of inhibitor. Blood pressures are reported as the average of three separate readings over a 30 min period. […]

[4] = test system: 14,15-EET hydrolysis in vivo (sEH), SHR; assay: Urinary DHET and EET excretion in SHR (GC-MS); parameters: species or system rat; conditions: 3 mg/kg i.p. daily, 24 hr urine after third dose, vehicle 2020
[5] = Table 2, MsEH […], read-out: Mouse sEH IC50
[6] = Table 1, MsEH […], read-out: Mouse sEH IC50
[7] = Table 1, HsEH 0.2 μM (text b16: […])
[8] = unpublished data, C. Morisseau and B. Hammock, 2000, read-out: IC50 with mouse sEH

Row | IC50 (Human sEH (HsEH); Table 2, HsEH […]) [µM] | IC50 [1, 5] [µM] | Structure (SMILES) | further results
1 | – | 1.6 ± 0.6 | O=[N+]([O-])c1ccc(C2OC2CO)cc1 (stereo not drawn) [4-NO2—C6H4 / H / CH—OH / S,S] | –
2 | – | 1100 ± 23 | OCC1OC1c1ccccc1 (stereo not drawn) [C6H5 / H / CH—OH / R,R] | –
3 | – | 2400 ± 46 | OCC1OC1c1ccccc1 (stereo not drawn) [C6H5 / H / CH—OH / S,S] | –
4 | 269 ± 5 | 163 ± 11 | CC(=O)C1OC1c1ccc([N+](=O)[O-])cc1 (racemic) [4-NO2—C6H4 / CH3 / C═O / ±] | –
5 | – | 5 ± 1 | O=[N+]([O-])c1ccc(C2OC2CO)cc1 (racemic) [4-NO2—C6H4 / H / CH—OH / ±] | –
6 | – | 1200 ± 25 | O=[N+]([O-])c1ccc(C2OC2CO)cc1 (stereo not drawn) [4-NO2—C6H4 / H / CH—OH / R,R] | –

Second part, the compound before the results:

Row | Structure (SMILES) | IC50 (Human sEH (HsEH); Table 2, HsEH […]) [µM] | IC50 [1, 5] [µM] | further results
7 | O=C(c1ccccc1)C1OC1c1ccc(F)cc1 (racemic) [4-F-C6H4 / C6H5 / C═O / ±] | 0.3 ± 0.1 | 1.3 ± 0.3 | –
8 | CCCCCCCCCCCCNC(=O)CC1CCCCC1 [Compound 514] | – | – | IC50 [1, 6]: 0.27 ± 0.01 µM
9 | O=C(c1ccccc1)C1OC1c1ccccc1 (racemic) [C6H5 / C6H5 / C═O / ±] | 0.3 ± 0.1 | 2.9 ± 0.3 | –
10 | CC(C)(C)CC(C)(C)NC(=O)NC1CCCCC1 [Compound 347] | – | – | IC50 (Human sEH (HsEH); [7]): 3.1 ± 0.07 µM; IC50 [1, 6]: 0.07 ± 0.01 µM
11 | OC(c1ccccc1)C1OC1c1ccc(-c2ccccc2)cc1 (racemic) [4-C6H5—C6H4 / C6H5 / CH—OH / ±] | 0.72 ± 0.03 | 0.51 ± 0.04 | –
12 | O=C(Nc1ccc(Cl)cc1)NC1CCCCC1 [Compound 20] | – | – | IC50 (Human sEH (HsEH); [7]): 0.4 ± 0.05 µM; IC50 [1, 6]: 0.19 ± 0.02 µM
13 | COC(c1ccccc1)C1OC1c1ccccc1 (racemic) [C6H5 / C6H5 / CH—OCH3 / ±] | 34 ± 1 | 103 ± 5 | –
14 | CCNC(=O)NC1CCCCC1 [N-cyclohexyl-N′-ethylurea] | – | – | effect on blood pressure in the SHR [2]: no effect; IC50 [1, 8]: 51.7 ± 0.7 µM
15 | [O-][S+](c1ccccc1)C1OC1c1ccc(-c2ccccc2)cc1 (racemic) [4-C6H5—C6H4 / C6H5 / S═O / ±] | 70 ± 3 | 73 ± 5 | –
16 | COC(c1ccccc1)C1OC1c1ccc(-c2ccccc2)cc1 (racemic) [4-C6H5—C6H4 / C6H5 / CH—OCH3 / ±] | 1.36 ± 0.07 | 0.48 ± 0.05 | –
17 | CC(O)C1OC1c1ccc([N+](=O)[O-])cc1 (racemic) [4-NO2—C6H4 / CH3 / CH—OH / ±] | 39 ± 1 | 6.5 ± 0.2 | –
18 | CCCCCCCCCCCCNC(=O)NC1CCCCC1 [Compound 297] | – | – | IC50 [1, 6]: 0.05 ± 0.01 µM
19 | CCCCCCCCNC(=O)NCCC [Compound 429] | – | – | IC50 (Human sEH (HsEH); [7]): 1.7 ± 0.4 µM; IC50 [1, 6]: 0.38 ± 0.04 µM
20 | O=C(Nc1ccc(O)cc1)NC1CCCCC1 [Compound 128] | – | – | IC50 (Human sEH (HsEH); [7]): 11.1 ± 0.8 µM; IC50 [1, 6]: 0.79 ± 0.08 µM
21 | Cc1ccc(C(=O)C2OC2c2ccc(-c3ccccc3)cc2)cc1 (racemic) [4-C6H5—C6H4 / 4-CH3—C6H4 / C═O / ±] | 0.19 ± 0.03 | 0.1 ± 0.01 | –
22 | O=C(c1ccccc1)C1OC1c1ccc(-c2c(F)c(F)c(F)c(F)c2F)cc1 (racemic) [4-C6F5—C6H4 / C6H5 / C═O / ±] | 0.2 ± 0.01 | 0.14 ± 0.01 | –
23 | [O-][S+](c1ccccc1)C1OC1c1ccccc1 (racemic) [C6H5 / C6H5 / S—O / ±] | 0.31 ± 0.02 | 2.3 ± 0.4 | –
24 | CCCCCCCC/C=C/CCCCCCCC(N)=O [elaidamide] | – | – | effect on toxicity of epoxide-containing xenobiotics [3]: enhances the toxicity effects of epoxide-containing xenobiotics
25 | CCCCCCCCCCCCNC(=O)NC1CCCCC1 [N-cyclohexyl-N′-dodecylurea] | – | – | decrease in systolic blood pressure 6 hr after the dose ([2]; SHR): 12±2 mm Hg and 12 mm Hg; time by which blood pressure returned to baseline after the dose ([2]; SHR): ≤ 24 h; IC50 [1, 8]: 0.05 ± 0.01 µM
26 | ON=C(c1ccccc1)C1OC1c1ccccc1 (racemic) [C6H5 / C6H5 / C═NOH / ±] | 0.29 ± 0.01 | 3.5 ± 0.5 | –
27 | O=C(NC1CCCCC1)NC1CCCCC1 [DCU, N,N′-dicyclohexylurea] | – | – | effect on ω-hydroxylase activity (CYP ω-hydroxylase): no effect; effect on animal death induced by leukotoxin/isoleukotoxin (Swiss Webster mice): either blocked the animal death induced by leukotoxin/isoleukotoxin or lengthened the lives of the mice; effect on CYP epoxygenase activity (CYP epoxygenase): no effect; decrease in systolic blood pressure 6 hr after the dose ([2]; SHR): 22±4 mm Hg and 22 mm Hg; time by which blood pressure returned to baseline after the dose ([2]; SHR): ≤ 24 h; systolic blood pressure ([2]; SHR, three to five hr after the fourth daily 3 mg/kg dose, vehicle 128±5): 102±5 mm Hg; effect on blood pressure in the WKY (WKY rats): no effect; also recorded: unaffected; excretion of total epoxygenase-derived products (EETs and DHETs) [4]: 1237 pg/mg creatinine
28 | Cc1ccc(C(O)C2OC2c2ccc(-c3ccccc3)cc2)cc1 (racemic) [4-C6H5—C6H4 / 4-CH3—C6H4 / CH—OH / ±] | 0.15 ± 0.02 | 0.09 ± 0.01 | –
29 | ON=C(c1ccccc1)C1OC1c1ccc(-c2ccccc2)cc1 (racemic) [4-C6H5—C6H4 / C6H5 / C═NOH / ±] | 35 ± 1 | 42 ± 3 | –
30 | OC(c1ccccc1)C1OC1c1ccc(F)cc1 (racemic) [4-F-C6H4 / C6H5 / CH—OH / ±] | 18 ± 2 | 72 ± 16 | –
31 | O=C(Nc1ccc(Cl)c(Cl)c1)Nc1ccc(Cl)c(Cl)c1 [Compound 299] | – | – | IC50 [1, 6]: 0.7 ± 0.1 µM
32 | CCCCCCCCCCCCN [dodecylamine, reference compound] | – | – | effect on blood pressure in the SHR [2]: no effect
33 | OC(c1ccccc1)C1OC1c1ccccc1 (racemic) [C6H5 / C6H5 / CH—OH / ±] | 22 ± 2 | 12.6 ± 0.9 | –
